Measured values: patent US20230167088A1, “1-PYRAZINYLPYRAZOLYL-3-OXYALKYL ACIDS AND THEIR DERIVATIVES, AND THEIR USE FOR CONTROL OF UNDESIRED PLANT GROWTH” (BAYER AKTIENGESELLSCHAFT, priority 2020, published 2023)

Columns and labels:
VIOTR [1] = assay: Herbicidal post-emergence action 1a (greenhouse pots, visual rating); assay type: in vivo, Viola tricolor; settings: visual rating about 3 weeks after treatment
In short: (§1)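 Visual scoring versus untreated plants (100% = plants dead, 0% = as control) followed roughly 3 weeks in the greenhouse after treatment. Plants grown in sandy loam pots had been sprayed on green parts at the one-leaf stage, 2–3 weeks post-sowing, with aqueous WP/EC preparations containing 0.5% additive, 600 l/ha, at 320 and/or 80 g/ha.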

VIOTR [2] = assay: Herbicidal pre-emergence action 2a (greenhouse pots, visual scoring); assay type: in vivo, Viola tricolor; settings: dosage 320 g/ha, visual scoring after about 3 weeks vs untreated controls
In short: (§2)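 Pre-emergence greenhouse pot test: WP or EC formulations sprayed onto covering soil over sown seeds at 600 l/ha water with 0.5% additive, at rates corresponding to 320 g/ha and/or 80 g/ha. Visual % activity versus untreated controls after about 3 weeks (100% = plants dead).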

VERPE = assay: as above; assay type: in vivo, Veronica persica; settings: dosage 320 g/ha, visual scoring after about 3 weeks vs untreated controls
In short: as §2

AMARE = assay: Herbicidal pre-emergence action 2b (doubly sown, 1280 g/ha); assay type: in vivo, Amaranthus retroflexus; settings: doubly sown pots, dosage 1280 g/ha, visual scoring after about 3 weeks
In short: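 Pre-emergence soil-surface spray (WP/EC formulation, 0.5% additive, 600 L/ha water) onto covered seeds in sandy loam, doubly sown per pot. Greenhouse ~3 wk; % effect scored visually against untreated pots.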

AVEFA = assay: Herbicidal pre-emergence action 2a (greenhouse pots, visual scoring); assay type: in vivo, Avena fatua; settings: dosage 320 g/ha, visual scoring after about 3 weeks
In short: as §2

harmful plants = assay: Herbicidal post-emergence action 1a, summary across species; assay type: in vivo; settings: Tables A1 to A15 (320 g/ha and/or 80 g/ha)
Description: a) Seeds of monocotyledonous and dicotyledonous weeds and crop plants are placed in sandy loam in plastic or organic plant pots, covered with soil and cultivated in a greenhouse under controlled growth conditions. 2 to 3 weeks after sowing, the test plants are treated at the one-leaf stage. The compounds of the invention, formulated in the form of wettable powders (WP) or as emulsion concentrates (EC), are then sprayed onto the green parts of the plants as aqueous suspension or emulsion with addition of 0.5% additive at a water application rate of 600 1/ha (converted). After the test plants have been kept in the greenhouse under optimum growth conditions for about 3 weeks, the activity of the preparations is rated visually in comparison to untreated controls. For example, 100% activity=the plants have died, 0% activity=like control plants.
Tables A1 to A15 below show the effects of selected compounds of the general formula (I) according to Tables 1 and 2 on various harmful plants and an application rate corresponding to 320 g/ha and/or 80 g/ha, which were obtained by the experimental procedure mentioned above.
For example, compound nos. I-05, I-07, I-08, I-10, I-12, I-16, I-17, I-22, I-36, I-37, I-39 and I-40 in the post-emergence method have very good action (80% to 100% herbicidal activity) against harmful plants such as Alopecurus myosuroides, Amaranthus retroflexus, Avena fatua, Lolium rigidum, Polygonum convolvulus, Setaria viridis, Veronica persica and Viola tricolor at an application rate of 0.32 kg of active substance per hectare.

POAAN = assay: Herbicidal post-emergence action 1b (twin sowing, 1280 g/ha); assay type: in vivo, Poa annua; settings: dosage 1280 g/ha, visual rating about 3 weeks after treatment
In short: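 Visual % activity vs untreated controls, ~3 wk after treatment (100% = dead, 0% = like control). Plants: one mono- plus one dicot weed species per pot, sandy loam, greenhouse; sprayed at one-leaf stage (2–3 wk post-sowing). Aqueous WP/EC, 0.5% additive, 600 L/ha water.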

DIGSA [3] = assay: Herbicidal post-emergence action 1a (greenhouse pots, visual rating); assay type: in vivo, Digitaria sanguinalis; settings: rated visually about 3 weeks after treatment, 100% = plants have died, 0% = like control plants
In short: as §1

LOLRI = assay: Herbicidal pre-emergence action 2a (greenhouse pots, visual scoring); assay type: in vivo, Lolium rigidum; settings: dosage 320 g/ha, visual scoring after about 3 weeks vs untreated controls
In short: as §2

PHBPU = assay: Herbicidal post-emergence action 1a (greenhouse pots, visual rating); assay type: in vivo, Pharbitis purpurea; settings: visual rating about 3 weeks after treatment
In short: as §1

DIGSA [4] = assay: Herbicidal pre-emergence action 2a (greenhouse pots, visual scoring); assay type: in vivo, Digitaria sanguinalis; settings: dosage 320 g/ha, visual scoring after about 3 weeks
In short: as §2

SMILES | Post-emergence action against VIOTR in % (VIOTR [1]; dosage 80 g/ha) | Post-emergence action against VIOTR in % (VIOTR [1]; dosage 320 g/ha) | Pre-emergence action against VIOTR in % (VIOTR [2]) | Pre-emergence action against VERPE in % (VERPE) | Pre-emergence action at 1280 g/ha against AMARE in % (AMARE) | Pre-emergence action against AVEFA in % (AVEFA) | herbicidal efficacy against harmful plants in the case of post-emergence treatment (in words) (harmful plants) | Post-emergence action at 1280 g/ha against POAAN in % (POAAN) | Post-emergence action against DIGSA in % (DIGSA [3]; Dosage 320 g/ha) | Pre-emergence action against LOLRI in % (LOLRI) | Post-emergence action against PHBPU in % (PHBPU; dosage 80 g/ha) | Post-emergence action against PHBPU in % (PHBPU; dosage 320 g/ha) | Pre-emergence action against DIGSA in % (DIGSA [4]) | Post-emergence action against DIGSA in % (DIGSA [3]; Dosage 80 g/ha)
COC(=O)C(C)Oc1nn(-c2cnccn2)c(-c2ccc(F)nc2)c1Br (racemic) [Example I-12] | 90% | 100% | 100% | 80% | 100% | 90% | good herbicidal efficacy | 100% | 80% | 100% | 80% | 90% | 100% | 
COC(=O)[C@@H](C)Oc1nn(-c2cnccn2)c(-c2cncc(F)c2)c1Br [Example I-39] | 80% | 90% | 100% | 100% | 100% | 90% | good herbicidal efficacy | 100% | 90% | 100% | 80% | 90% | 100% | 80%
COC(=O)[C@@H](C)Oc1nn(-c2cnccn2)c(-c2ccc(F)nc2)c1Cl [Example I-36] | 90% | 90% | 100% | 100% | 100% | 100% | good herbicidal efficacy | 100% | 90% | 100% | 90% | 90% | 100% | 80%
C[C@H](Oc1nn(-c2cnccn2)c(-c2cncc(F)c2)c1Br)C(=O)O [Example I-37] | 80% | 90% | 100% | 100% | 100% | 90% | good herbicidal efficacy | 100% | 90% | 100% |  | 80% | 100% | 
COC(=O)C(C)Oc1nn(-c2cnccn2)c(-c2ccnc(F)c2)c1Cl (racemic) [Example I-05] | 90% | 90% | 100% | 100% | 100% | 80% | good herbicidal efficacy | 100% | 90% | 100% |  |  | 100% | 80%
CCOC(=O)COc1nn(-c2cnccn2)c(-c2ccc(F)nc2)c1Cl [Example I-53] | 90% |  | 100% | 90% | 100% | 90% | good herbicidal efficacy | 100% |  | 80% | 80% |  | 100% | 90%
COC(=O)[C@@H](C)Oc1nn(-c2cnccn2)c(-c2cccc(F)c2)c1Br [Example I-20] | 80% |  | 90% | 100% | 100% | 80% | good herbicidal efficacy | 100% | 90% |  |  | 90% | 100% | 80%
COC(=O)C(C)Oc1nn(-c2cnccn2)c(-c2ccc(F)c(F)c2)c1Br (racemic) [Example I-16] | 80% | 90% | 100% | 100% | 100% | 90% | good herbicidal efficacy | 100% | 90% | 100% |  | 90% | 100% | 
